This is an account of results in publication PMC10291282, “Synthesis, ADMT prediction, and in vitro and in silico α-glucosidase inhibition evaluations of new quinoline–quinazolinone–thioacetamides” (RSC Advances, 2023).

The target in data set [1] is T1, α-glucosidase (Saccharomyces cerevisiae, UniProt P53341).
T1 construct: purchased Sigma-Aldrich
The data set can be described thus: biochemical. It counts as biochemical. To be noted: for anti-α-glucosidase activity in words: in comparison to acarbose; for decrease of inhibitory activity relative to compound 9g: replacement or removal of 4-OH of 9g. As for the experimental part:
Yeast form of α-glucosidase (EC3.2.1.20, Saccharomyces cerevisiae, 20 U mg^−1) and p-nitrophenyl glucopyranoside as substrate were purchased from Sigma-Aldrich. […] IC50 values were calculated by the percentage of enzyme inhibition and non-linear regression curve using the logit method.

In data set [2] the target is α-glucosidase. The arrangement: method as in PMID 28110817. To be noted: Fig. 1, template B study; read-out: IC50 against α-glucosidase; cited from earlier work.
The target of data set [3] is α-glucosidase. To be noted: read-out: IC50 against α-glucosidase; Fig. 1, template A study; cited from earlier work.
Data set [4] concerns α-glucosidase. The data set can be described thus: Literature α-glucosidase inhibition of quinoline template A. Type of data set: biochemical. To be noted: template A vs acarbose of that study.
Data set [5] deals with T1, α-glucosidase. Description: Enzyme kinetics study for α-glucosidase inhibition. It counts as biochemical. How it is done:
The 20 μL of α-glucosidase solution (1 U mL^−1) was incubated with different concentrations of compound 9g (0, 2.25, 4.5, and 9 μM) for 15 min at 30 °C. After that, the enzymatic reaction was started by adding different concentrations of p-nitrophenyl glucopyranoside (substrate, 1–4 mM), and change in absorbance was measured for 20 min at 405 nm by spectrophotometer (Gen5, Power Wave xs2, BioTek, America).

Setting [6] is: yeast α-glucosidase, p-nitrophenyl glucopyranoside substrate, pH 6.8, 37 °C, mean ± SD, read-out: IC50 against α-glucosidase.

The structures appear in SMILES notation. Where two headings read alike, the source gives them in different places. Some results are limits rather than exact numbers.

T1 sequence (P53341 whole entry): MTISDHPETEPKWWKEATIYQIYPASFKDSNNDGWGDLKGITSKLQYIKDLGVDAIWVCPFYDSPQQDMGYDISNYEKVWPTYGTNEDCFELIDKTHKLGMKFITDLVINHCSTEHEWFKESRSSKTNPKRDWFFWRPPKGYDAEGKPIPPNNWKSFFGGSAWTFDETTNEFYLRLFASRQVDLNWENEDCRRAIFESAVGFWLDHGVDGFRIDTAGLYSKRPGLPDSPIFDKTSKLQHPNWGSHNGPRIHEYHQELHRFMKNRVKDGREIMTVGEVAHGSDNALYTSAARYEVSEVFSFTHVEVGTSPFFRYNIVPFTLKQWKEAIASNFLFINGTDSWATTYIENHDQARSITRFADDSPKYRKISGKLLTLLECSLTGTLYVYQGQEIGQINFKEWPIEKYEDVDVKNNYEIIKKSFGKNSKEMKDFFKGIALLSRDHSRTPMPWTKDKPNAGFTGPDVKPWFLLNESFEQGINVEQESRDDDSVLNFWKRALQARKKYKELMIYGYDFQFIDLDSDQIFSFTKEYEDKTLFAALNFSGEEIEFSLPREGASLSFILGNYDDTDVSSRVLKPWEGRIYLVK

Regarding `O=C(CSc1nc2ccccc2cc1-c1nc2ccccc2c(=O)[nH]1)Nc1ccccc1` [9a, 2-{[3-(4-Oxo-3,4-dihydroquinazolin-2-yl)quinolin-2-yl]thio}-N-phenylacetamide], the melting point was 200 to 202 °C. At α-glucosidase [1], the “anti-α-glucosidase activity in words” value is reported as “potent members” and the “decrease of inhibitory activity relative to compound 9g” value turned out to be 2.8 fold. For the same molecule, the IC50 at α-glucosidase [1] (setting [6]) was 25.8 ± 0.6 µM.
Molecule `Cc1cccc(NC(=O)CSc2nc3ccccc3cc2-c2nc3ccccc3c(=O)[nH]2)c1C` [9c, N-(2,3-Dimethylphenyl)-2-{[3-(4-oxo-3,4-dihydroquinazolin-2-yl)quinolin-2-yl]thio}acetamide] displayed a melting point of 208 to 210 °C. At α-glucosidase [1] (setting [6]), the IC50 was more than 750 µM.
`O=C(CSc1nc2ccccc2cc1-c1nc2ccccc2c(=O)[nH]1)Nc1ccc(Cl)cc1` [9k, N-(4-Chlorophenyl)-2-{[3-(4-oxo-3,4-dihydroquinazolin-2-yl)quinolin-2-yl]thio}acetamide] had a melting point of 209 to 211 °C. Besides, the “anti-α-glucosidase activity in words” value at α-glucosidase [1] was “potent members”. On α-glucosidase [1] (setting [6]), the IC50 came out at 40.1 ± 1.2 µM.
Molecule `Cc1cccc(C)c1NC(=O)CSc1nc2ccccc2cc1-c1nc2ccccc2c(=O)[nH]1` [9d, N-(2,6-Dimethylphenyl)-2-{[3-(4-oxo-3,4-dihydroquinazolin-2-yl)quinolin-2-yl]thio}acetamide] had a melting point of 220 to 222 °C. At α-glucosidase [1] (setting [6]), the IC50 was more than 750 µM.
Turning to `O=C(CSc1nc2ccccc2cc1-c1nc2ccccc2c(=O)[nH]1)Nc1cccc(Cl)c1` [9j, N-(3-Chlorophenyl)-2-{[3-(4-oxo-3,4-dihydroquinazolin-2-yl)quinolin-2-yl]thio}acetamide], the melting point lay within 212 to 214 °C. Besides, the “anti-α-glucosidase activity in words” value at α-glucosidase [1] is on record as “potent members”. Moreover, the IC50 at α-glucosidase [1] (setting [6]) stood at 53.4 ± 2.3 µM.
Molecule `O=C(CSc1nc2ccccc2cc1-c1nc2ccccc2c(=O)[nH]1)NCc1ccc(F)cc1` [9p, N-(4-Fluorobenzyl)-2-{[3-(4-oxo-3,4-dihydroquinazolin-2-yl)quinolin-2-yl]thio}acetamide] registered a melting point of 205 to 207 °C. Also, the IC50 at α-glucosidase [1] (setting [6]) is more than 750 µM.
On to `O=C(CSc1nc2ccccc2cc1-c1nc2ccccc2c(=O)[nH]1)Nc1ccc(F)cc1` [9i, N-(4-Fluorophenyl)-2-{[3-(4-oxo-3,4-dihydroquinazolin-2-yl)quinolin-2-yl]thio}acetamide], for which the melting point lay within 206 to 208 °C. In addition, on α-glucosidase [1], the “anti-α-glucosidase activity in words” value is on record as “eradicated inhibitory activity”. Also, the IC50 at α-glucosidase [1] (setting [6]) is more than 750 µM.
Consider `O=c1[nH]c(-c2ccc(Cl)cc2)nc2ccccc12` [Compound B], for which the IC50 at α-glucosidase [2] is 12.5 ± 0.1 µM.
The molecule `Cc1ccc(CNC(=O)CSc2nc3ccccc3cc2-c2nc3ccccc3c(=O)[nH]2)cc1` [9o, N-(4-Methylbenzyl)-2-{[3-(4-oxo-3,4-dihydroquinazolin-2-yl)quinolin-2-yl]thio}acetamide] registered a melting point of 202 to 204 °C. Further, the IC50 at α-glucosidase [1] (setting [6]) was more than 750 µM.
Molecule `O=C(CSc1nc2ccccc2cc1-c1nc2ccccc2c(=O)[nH]1)NCc1ccccc1` [9n, N-Benzyl-2-{[3-(4-oxo-3,4-dihydroquinazolin-2-yl)quinolin-2-yl]thio}acetamide] had a melting point of 201 to 203 °C. For the same molecule, the IC50 at α-glucosidase [1] (setting [6]) is more than 750 µM.
With `O=C(CSc1nc2ccccc2cc1-c1nc2ccccc2c(=O)[nH]1)Nc1ccccc1F` [9h, N-(2-Fluorophenyl)-2-{[3-(4-oxo-3,4-dihydroquinazolin-2-yl)quinolin-2-yl]thio}acetamide], the melting point was in the range of 209 to 211 °C. In addition, on α-glucosidase [1], the “anti-α-glucosidase activity in words” value is given as “eradicated inhibitory activity”. Also, the IC50 at α-glucosidase [1] (setting [6]) is more than 750 µM.
For `O=C(O)c1ccc2ccccc2n1` [Compound A], the IC50 at α-glucosidase [3] is 9.1 ± 2.3 µM. For the same molecule, in the data set on α-glucosidase [4], the “fold more potent than acarbose” value was 7.3 fold.
Take `O=C(CSc1nc2ccccc2cc1-c1nc2ccccc2c(=O)[nH]1)Nc1ccc(O)cc1` [9g, N-(4-Hydroxyphenyl)-2-{[3-(4-oxo-3,4-dihydroquinazolin-2-yl)quinolin-2-yl]thio}acetamide]: the melting point lay in the range of 210 to 212 °C. On α-glucosidase [1] (comparison with literature compounds C), the “fold more potent than the most potent compound among template compounds C” value was 8.8 fold. The “anti-α-glucosidase activity in words” value at α-glucosidase [1] was “potent members”. In addition, the IC50 at α-glucosidase [1] (setting [6]) is 9 ± 0.3 µM. Besides, the type of inhibition result at α-glucosidase [5] (Lineweaver–Burk plots) is reported as “competitive”. Also, the affinity at α-glucosidase [5] (secondary re-plot of Lineweaver–Burk plots, 0, 2.25, 4.5, 9.0 μM inhibitor) corresponds to a Ki of 7 µM.
`Cc1ccc(NC(=O)CSc2nc3ccccc3cc2-c2nc3ccccc3c(=O)[nH]2)cc1` [9b, 2-{[3-(4-Oxo-3,4-dihydroquinazolin-2-yl)quinolin-2-yl]thio}-N-(p-tolyl)acetamide] had a melting point of 203 to 205 °C. In addition, on α-glucosidase [1] (setting [6]), the IC50 was more than 750 µM.
`O=C(CSc1nc2ccccc2cc1-c1nc2ccccc2c(=O)[nH]1)Nc1ccc([N+](=O)[O-])cc1` [9m, N-(4-Nitrophenyl)-2-{[3-(4-oxo-3,4-dihydroquinazolin-2-yl)quinolin-2-yl]thio}acetamide] showed a melting point of 217 to 219 °C. In addition, the “anti-α-glucosidase activity in words” value on α-glucosidase [1] is “potent members”. On α-glucosidase [1] (setting [6]), the IC50 worked out at 52 ± 1.4 µM.
On to `COc1ccc(NC(=O)CSc2nc3ccccc3cc2-c2nc3ccccc3c(=O)[nH]2)cc1` [9f, N-(4-Methoxyphenyl)-2-{[3-(4-oxo-3,4-dihydroquinazolin-2-yl)quinolin-2-yl]thio}acetamide], for which the melting point fell in the range of 203 to 205 °C. In addition, on α-glucosidase [1], the IC50 is 37.7 ± 2.9 µM, the “anti-α-glucosidase activity in words” value is listed as “potent members” and the “decrease of inhibitory activity relative to compound 9g” value is 4.1 fold.
As for `CCc1ccc(NC(=O)CSc2nc3ccccc3cc2-c2nc3ccccc3c(=O)[nH]2)cc1` [9e, N-(4-Ethylphenyl)-2-{[3-(4-oxo-3,4-dihydroquinazolin-2-yl)quinolin-2-yl]thio}acetamide], the melting point lay in the range of 208 to 210 °C. The IC50 at α-glucosidase [1] (setting [6]) was more than 750 µM.
`O=C(CSc1nc2ccccc2cc1-c1nc2ccccc2c(=O)[nH]1)Nc1ccc(Br)cc1` [9l, N-(4-Bromophenyl)-2-{[3-(4-oxo-3,4-dihydroquinazolin-2-yl)quinolin-2-yl]thio}acetamide] had a melting point of 208 to 210 °C. In addition, the “anti-α-glucosidase activity in words” value at α-glucosidase [1] is on record as “eradicated inhibitory activity”. In addition, at α-glucosidase [1] (setting [6]), the IC50 was more than 750 µM.

What is called melting point is the temperature, or range, at which the solid turns liquid. Usually IC50 stands for the point on the concentration scale where inhibition reaches its midpoint. By Ki is commonly meant the equilibrium dissociation constant of an inhibitor or competing ligand from its target. The low end stands for higher affinity, the high end for lower affinity.
